# Molecular target: T1, yeast topoisomerase II (yTOPOII) (Saccharomyces cerevisiae, UniProt P06786)
# T1 construct: gene TOP2; purified enzyme, commercial (Inspiralis Limited, UK)
# T1 sequence (P06786 1-1428): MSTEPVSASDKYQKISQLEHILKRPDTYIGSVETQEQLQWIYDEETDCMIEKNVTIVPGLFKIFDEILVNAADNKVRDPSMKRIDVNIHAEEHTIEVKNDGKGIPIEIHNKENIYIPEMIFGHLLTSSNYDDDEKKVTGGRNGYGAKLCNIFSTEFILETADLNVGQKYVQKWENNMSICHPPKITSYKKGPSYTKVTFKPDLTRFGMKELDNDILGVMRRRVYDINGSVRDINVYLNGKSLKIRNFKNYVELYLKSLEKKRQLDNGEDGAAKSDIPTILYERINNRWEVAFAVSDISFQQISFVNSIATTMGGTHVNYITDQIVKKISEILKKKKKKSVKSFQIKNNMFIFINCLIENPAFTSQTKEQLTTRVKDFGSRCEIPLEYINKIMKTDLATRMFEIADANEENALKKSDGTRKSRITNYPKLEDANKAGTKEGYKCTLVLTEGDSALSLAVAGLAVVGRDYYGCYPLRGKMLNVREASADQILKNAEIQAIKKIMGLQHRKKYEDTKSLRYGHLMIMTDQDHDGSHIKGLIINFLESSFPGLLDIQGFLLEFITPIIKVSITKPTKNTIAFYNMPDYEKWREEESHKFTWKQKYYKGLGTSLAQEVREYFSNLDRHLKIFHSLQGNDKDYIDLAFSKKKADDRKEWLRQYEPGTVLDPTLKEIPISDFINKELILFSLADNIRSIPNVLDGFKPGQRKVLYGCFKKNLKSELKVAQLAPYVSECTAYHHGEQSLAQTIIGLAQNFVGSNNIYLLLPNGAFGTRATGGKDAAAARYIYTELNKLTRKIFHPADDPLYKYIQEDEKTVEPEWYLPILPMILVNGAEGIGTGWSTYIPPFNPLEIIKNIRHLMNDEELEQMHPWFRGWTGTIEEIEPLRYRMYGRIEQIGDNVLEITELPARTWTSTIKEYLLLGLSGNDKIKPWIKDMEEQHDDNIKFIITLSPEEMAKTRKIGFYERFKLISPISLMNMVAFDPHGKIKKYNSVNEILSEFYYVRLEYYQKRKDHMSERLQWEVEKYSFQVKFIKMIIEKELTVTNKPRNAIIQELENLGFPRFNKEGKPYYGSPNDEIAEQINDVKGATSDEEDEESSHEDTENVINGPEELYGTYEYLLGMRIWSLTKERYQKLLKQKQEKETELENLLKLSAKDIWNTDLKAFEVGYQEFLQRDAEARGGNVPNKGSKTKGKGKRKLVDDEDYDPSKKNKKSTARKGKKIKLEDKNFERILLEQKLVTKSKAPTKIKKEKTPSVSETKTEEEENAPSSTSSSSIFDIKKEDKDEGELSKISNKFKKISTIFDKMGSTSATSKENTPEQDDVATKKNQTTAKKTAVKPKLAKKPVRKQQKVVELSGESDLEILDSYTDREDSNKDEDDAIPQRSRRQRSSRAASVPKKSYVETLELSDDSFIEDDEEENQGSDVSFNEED
# Assay: gel-based relaxation of supercoiled plasmid DNA, densitometry
# Type: biochemical
# Source text: gel-based relaxation of supercoiled plasmid DNA, densitometry on yeast topoisomerase II (yTOPOII)
row,SMILES,IC50 [µM]
1,CN(C)CCCNc1ccc2nnn3c4ccc(O)cc4c(=O)c1c23 [C-1305],18.2 ± 1.4
2,CCN(CC)CCNc1ccc2ncn3c4ccc(O)cc4c(=O)c1c23 [C-1311],16.6 ± 1.3
3,CCN(CC)CCNc1ccc2ncn3c4ccc(OC)cc4c(=O)c1c23 [C-1330],13.7 ± 1.1
4,"Cc1ccc2c(c1)c(=O)c1c(NCCCN(C)C)ccc3nnn2c31 [IKE1, 5-[-(3′-Dimethylamino)propylamino]-8-methyl-6H-[1–3]-triazolo[4,5,l-de]acridin-6-one]",13.4 ± 1.1
5,"CCN(CC)CCCNc1ccc2nnn3c4ccc(C)cc4c(=O)c1c23 [IKE2, 5-[-(3′-Diethylamino)propylamino]-8-methyl-6H-[1–3]-triazolo[4,5,l-de]acridin-6-one]",13.3 ± 1.1
6,"COc1ccc2c(c1)c(=O)c1c(NCCCN(C)C)ccc3nnn2c31 [IKE3, 5-[-(3′-Dimethylamino)propylamino]-8-methoxy-6H-[1–3]-triazolo[4,5,l-de]acridin-6-one]",13.2 ± 1.1
7,"CCN(CC)CCCNc1ccc2nnn3c4ccc(OC)cc4c(=O)c1c23 [IKE4, 5-[-(3′-Diethylamino)propylamino]-8-methoxy-6H-[1–3]-triazolo[4,5,l-de]acridin-6-one]",13.3 ± 1.2
8,"COc1ccc2c(c1)c(=O)c1c(NCCCN)ccc3nnn2c31 [IKE5, 5-[-(3′-Aminopropyl)amino]-8-methoxy-6H-[1–3]-triazolo[4,5,l-de]acridin-6-one]",7.7 ± 1.1
9,"Cc1ccc2c(c1)c(=O)c1c(NCCCN)ccc3nnn2c31 [IKE6, 5-[-(3′-Aminopropyl)amino]-8-methyl-6H-[1–3]-triazolo[4,5,l-de]acridin-6-one]",10.9 ± 1.1
10,"COc1ccc2c(c1)c(=O)c1c(NCCCNC(=O)[C@@H](N)CCCCN)ccc3nnn2c31 [IKE7, N′-{3-[(8-methoxy-6-oxo-6H-[1,2,3]triazolo[4,5,1-de]acridin-5-yl)amino]propyl} lysinamide]",13.4 ± 1.1
11,"Cc1ccc2c(c1)c(=O)c1c(NCCCNC(=O)[C@@H](N)CCCCN)ccc3nnn2c31 [IKE8, N′-{3-[(8-methyl-6-oxo-6H-[1,2,3]triazolo[4,5,1-de]acridin-5-yl)amino]propyl} lysinamide]",15.2 ± 1.2
12,"Cc1ccc2c(c1)c(=O)c1c(NCCN)ccc3ncn2c31 [IKE10, 5-[(2-aminoethyl)amino]-8-methyl-6H-imidazo[4,5,1-de]acridin-6-one]",15.5 ± 1.3
13,"Cc1ccc2c(c1)c(=O)c1c(NCCNC(=O)[C@@H](N)CCCCN)ccc3ncn2c31 [IKE11, N-{2-[(8-methyl-6-oxo-6H-imidazo[4,5,1-de]acridin-5-yl)amino]ethyl}lysinamide]",14.9 ± 1.1
14,"NCCNc1ccc2ncn3c4ccc(O)cc4c(=O)c1c23 [IKE12, 5-[(2-aminoethyl)amino]-8-hydroxy-6H-imidazo[4,5,1-de]acridin-6-one]",10.9 ± 1.1
15,"COc1ccc2c(c1)c(=O)c1c(NCCN)ccc3ncn2c31 [IKE13, 5-[(2-aminoethyl)amino]-8-methoxy-6H-imidazo[4,5,1-de]acridin-6-one]",6.2 ± 1.2
16,"COc1ccc2c(c1)c(=O)c1c(NCCNC(=O)[C@@H](N)CCCCN)ccc3ncn2c31 [IKE14, N-{2-[(8-methoxy-6-oxo-6H-imidazo[4,5,1-de]acridin-5-yl)amino]ethyl}lysinamide]",14.7 ± 1.1
